In general, IC50 refers to the concentration that gives 50% inhibition. Low values mean inhibition by little substance, high ones a need for much substance.

SMILES strings stand for the structures.

RNA-directed RNA polymerase, sequence (O39930 whole entry): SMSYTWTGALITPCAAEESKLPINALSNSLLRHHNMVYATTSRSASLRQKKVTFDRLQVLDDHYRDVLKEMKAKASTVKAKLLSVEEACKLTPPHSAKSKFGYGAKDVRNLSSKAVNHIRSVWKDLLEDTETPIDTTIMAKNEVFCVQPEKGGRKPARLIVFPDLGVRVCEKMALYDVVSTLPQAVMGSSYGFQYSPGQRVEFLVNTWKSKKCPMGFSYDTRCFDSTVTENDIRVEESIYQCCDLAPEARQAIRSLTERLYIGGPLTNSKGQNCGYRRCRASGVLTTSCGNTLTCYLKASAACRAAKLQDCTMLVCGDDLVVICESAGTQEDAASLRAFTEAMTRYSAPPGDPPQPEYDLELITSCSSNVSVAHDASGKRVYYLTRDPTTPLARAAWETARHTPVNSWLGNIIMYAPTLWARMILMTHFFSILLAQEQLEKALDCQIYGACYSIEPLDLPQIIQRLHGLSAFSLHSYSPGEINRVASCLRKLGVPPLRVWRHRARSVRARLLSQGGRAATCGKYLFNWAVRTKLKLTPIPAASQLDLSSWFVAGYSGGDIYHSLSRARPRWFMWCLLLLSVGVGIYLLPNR

The assay addresses RNA-directed RNA polymerase (Hepacivirus hominis, UniProt O39930). As to the kind of experiment: Inhibitory activity against Hepatitis C RNA dependent RNA polymerase Nonstructural protein 5B (NS5B polymerase) expressed from baculovirus-infected Sf9 insect cells.
In turn, `O=C(O)CN(Cc1cccc(Br)c1)C(=O)c1ccc(Cl)cc1Cl` had an IC50 of 53 µM.
Under `Cc1cccc(CN(C(=O)c2ccc(Cl)cc2Cl)[C@@H](Cc2ccccc2)C(=O)O)c1` stands 1.8 µM.
Under `O=C(O)[C@H](Cc1ccccc1)N(Cc1ccc(-c2nccs2)cc1)C(=O)c1ccc(Cl)cc1Cl` stands 5.7 µM; under `O=C(O)[C@H](Cc1ccccc1)N(Cc1cccc(Cl)c1)C(=O)c1ccc(Cl)cc1Cl`, 1.4 µM.
Under `O=C(O)[C@@H](Cc1ccccc1)N(Cc1cccc(Br)c1)C(=O)c1ccc(Cl)cc1Cl` stands 8.6 µM; under `O=C(O)[C@H](Cc1ccccc1)N(Cc1ccccc1Br)C(=O)c1ccc(Cl)cc1Cl`, 8 µM.
Regarding `O=C(O)[C@H](Cc1ccccc1)N(Cc1cccc(Br)c1)C(=O)c1ccccc1Cl`, the IC50 was 15 µM.
`O=C(O)[C@H](Cc1ccccc1)N(Cc1ccccc1)C(=O)c1ccc(Cl)cc1Cl` yielded an IC50 of 8 µM.
Under `O=C(O)[C@H](Cc1ccccc1)N(Cc1cccc([N+](=O)[O-])c1)C(=O)c1ccc(Cl)cc1Cl` stands 0.7 µM; under `N#Cc1cccc(CN(C(=O)c2ccc(Cl)cc2Cl)[C@@H](Cc2ccccc2)C(=O)O)c1`, 0.8 µM.
Under `N#Cc1ccccc1CN(C(=O)c1ccc(Cl)cc1Cl)[C@@H](Cc1ccccc1)C(=O)O` stands 6 µM; under `O=C(O)[C@H](Cc1ccccc1)N(Cc1ccc(-c2cc3ccccc3o2)s1)C(=O)c1ccc(Cl)cc1Cl`, 8.6 µM.
Under `O=C(O)[C@H](Cc1ccccc1)N(Cc1cccnc1)C(=O)c1ccc(Cl)cc1Cl` stands 11 µM; under `O=C(O)[C@H](Cc1ccccc1)N(Cc1ccc(Br)s1)C(=O)c1ccc(Cl)cc1Cl`, 3.1 µM; under `O=C(O)[C@H](Cc1ccccc1)N(Cc1cccc(Br)c1)C(=O)c1ccc(Cl)cc1Cl`, 3.5 µM.
With `COc1ccc(-c2ccc(Cl)cc2)c(COc2ccc(-c3nc4cc(C(=O)O)ccc4n3C3CCCCC3)cc2)c1`, the IC50 came to 0.62 µM.
Under `O=C(O)[C@H](Cc1ccccc1)N(Cc1ccc(Br)cc1)C(=O)c1ccc(Cl)cc1Cl` stands 9.1 µM; under `O=C(O)[C@H](Cc1ccccc1)N(Cc1ccc[n+]([O-])c1)C(=O)c1ccc(Cl)cc1Cl`, 2.7 µM.
In the case of `N#Cc1ccc(CN(C(=O)c2ccc(Cl)cc2Cl)[C@@H](Cc2ccccc2)C(=O)O)cc1`, half-maximal inhibition (IC50) was put at 8 µM.
Under `O=C(O)[C@H](Cc1ccccc1)N(Cc1cccc(F)c1)C(=O)c1ccc(Cl)cc1Cl` stands 3.2 µM; under `O=C(O)[C@H](Cc1ccccc1)N(Cc1cccc(Br)c1)C(=O)c1ccc(Cl)cc1`, 11 µM.
Under `O=C(O)[C@H](Cc1ccccc1)N(Cc1cccc(C(F)(F)F)c1)C(=O)c1ccc(Cl)cc1Cl` stands 1.7 µM.

Source of the values: ChEMBL document CHEMBL1144916, “Identification of N,N-disubstituted phenylalanines as a novel class of inhibitors of hepatitis C NS5B polymerase” (J Med Chem, 2003).
